From US7863449B2, “Modulators of muscarinic receptors” (Vertex Pharmaceuticals Incorporated, priority 2004, dated 2011)

Tests used:
M4 muscarinic receptor = molecular target: T1, M4 muscarinic receptor (Homo sapiens, UniProt P08173); assay: Functional mobilization of intracellular calcium (FLIPR), M4-CHO cells; assay type: cell-based; conditions: for Emax: 100% efficacy is the maximum response obtained using Carbachol as a control; for M4 Activity: M4-CHO cells, FLIPR calcium mobilization
T1 construct: expressed in transfected cells; host or cells: CHO (M4-CHO)
T1 sequence (P08173 1-479): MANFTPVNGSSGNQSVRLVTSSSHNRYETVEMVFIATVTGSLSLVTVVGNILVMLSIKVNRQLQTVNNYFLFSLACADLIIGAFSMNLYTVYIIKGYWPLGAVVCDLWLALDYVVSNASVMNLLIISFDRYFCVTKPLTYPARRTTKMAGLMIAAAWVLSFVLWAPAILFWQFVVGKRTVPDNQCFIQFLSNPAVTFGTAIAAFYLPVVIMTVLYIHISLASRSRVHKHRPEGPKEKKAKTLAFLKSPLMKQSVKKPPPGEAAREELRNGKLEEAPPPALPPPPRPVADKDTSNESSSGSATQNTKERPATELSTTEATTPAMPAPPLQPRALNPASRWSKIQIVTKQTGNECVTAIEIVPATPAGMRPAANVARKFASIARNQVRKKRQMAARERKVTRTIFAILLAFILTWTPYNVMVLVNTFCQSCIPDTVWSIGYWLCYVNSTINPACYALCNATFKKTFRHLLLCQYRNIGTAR
Experimental: (§1) Functional Mobilization of Intracellular Calcium to Determine Muscarinic Receptor Activity:
(§2) CHO cells expressing muscarinic receptors (M1 to M5) are grown as monolayers in tissue culture flasks at 37° C. in a humidified atmosphere containing 5% CO2 and passaged every 3-5 days. The growth media is Dulbecco's modified eagles medium (DMEM, Gibco Cat# 12430-054), containing 25 mM Hepes and supplemented with Fetal Bovine Serum (Hyclone, cat# SH30071.03), 0.1 mM of MEM non-essential amino acids (GIBCO, Cat# 11140-050), 1 mM MEM Sodium Pyruvate (GIBCO Cat# 11360-070) and 100 units/ml of Penicillin G and 100 μg/ml of Streptomycin (GIBCO Cat# 15140-122). The recombinant muscarinic receptor cell lines are grown under antibiotic pressure with media containing 25 μg/ml zeocin and 500 μg/ml G418 (M1-CHO), 4 μg/ml puromycin, 50 μg/ml zeocin and 2.5 μg/ml blasticidin (M2 and M4-CHO) or 50 μg/ml zeocin and 4 μg/ml puromycin (M3 and M5-CHO).
(§3) Cells are harvested at 80-90% confluence using Versene (GIBCO Cat# 15040-066), collected by centrifugation and seeded 18-24 hrs prior to running the calcium assay at a density of 5,000-10,000 cells/well in […], clear-bottomed 384-well plates (BD Biocoat, poly-D-lysine, Cat#356663). The day of the experiment, the cells are washed with a plate washer (Bioteck Instruments, ELX 405) using bath1 buffer (140-mM NaCl, 4.5-mM KCl, 2-mM CaCl2, 1-mM MgCl2, 10-mM Hepes-Na, 10-mM Glucose, pH 7.4, with NaOH) containing 1 mM Probenecid. Next, the calcium dye Fluo-3 (25 μl/well of Fluo-3 AM at 4 μM, Molecular Probes F-1241, in Bath 1 buffer containing 1 mM Probenecid) is added to the 25 μl of Bath 1 remaining in each well after the plate wash and the dye is loaded at 37° C. in the tissue culture incubator for 60-90 min. The fluorescent dye is removed using the plate washer with Bath 1 containing 1 mM Probenecid, leaving 25 μl/well of this solution after the wash. Alternatively, cells can be loaded with the calcium indicator from Molecular Devices (Calcium 3 Assay Reagents, Cat # R7181) adding 5 μl of a 5× solution dye in Bath 1 containing 1 mM Probenecid (10 ml per dye flask cat# R7182 to generate a solution 20×) to 20 μl of the same buffer. After loading for 60 min, the experiment can be run without having to remove the dye.
(§4) Compounds are prepared at a 2× fold concentration in a 96-well plate (round bottom, Costar Corning cat# 3656), by reconstituting the pre-spotted compounds in bath 1 containing 1 mM probenecid. The final concentration DMSO is 0.5%, and the amount of DMSO is normalized across the assay plate. To determine an agonist action of the compounds on muscarinic receptors, the reconstituted compounds are added (25 μl compound/well) to the cell assay plate (containing 25 μl/well) using the multi-channel robotic system of the FLIPR 3 Instrument (Molecular Devices, Sunnyvale, Calif.). To determine a functional inhibitory action of the compounds on muscarinic receptors, the reconstituted compounds are added (25 μl compound/well) to the assay plate and pre-incubated for 15 min prior to adding 25 μl of Carbachol at 3× the EC80 for each muscarinic subtype. Alternatively, the compounds can be co-applied simultaneously with the agonist. In both assay modes, the fluorescence is recorded for 60 sec (excitation wavelength is […] and emission wavelength 540 nm) using the FLIPR 3 instrument.
(§5) The potency, efficacy and selectivity of the muscarinic compounds were evaluated by screening the compound activity across the whole family (M1 to M5 cells). Compounds were also screened for activity on other proteins such as other GPCRs and ion channels to determine selectivity on M4 receptors.

M1 muscarinic receptor = molecular target: T2, M1 muscarinic receptor (Homo sapiens, UniProt P11229); assay: Functional mobilization of intracellular calcium (FLIPR), M1-CHO cells; assay type: cell-based; conditions: for Emax: 100% efficacy is the maximum response obtained using Carbachol as a control; for M1 Activity: M1-CHO cells, FLIPR calcium mobilization
T2 construct: expressed in transfected cells; host or cells: CHO (M1-CHO)
T2 sequence (P11229 1-460): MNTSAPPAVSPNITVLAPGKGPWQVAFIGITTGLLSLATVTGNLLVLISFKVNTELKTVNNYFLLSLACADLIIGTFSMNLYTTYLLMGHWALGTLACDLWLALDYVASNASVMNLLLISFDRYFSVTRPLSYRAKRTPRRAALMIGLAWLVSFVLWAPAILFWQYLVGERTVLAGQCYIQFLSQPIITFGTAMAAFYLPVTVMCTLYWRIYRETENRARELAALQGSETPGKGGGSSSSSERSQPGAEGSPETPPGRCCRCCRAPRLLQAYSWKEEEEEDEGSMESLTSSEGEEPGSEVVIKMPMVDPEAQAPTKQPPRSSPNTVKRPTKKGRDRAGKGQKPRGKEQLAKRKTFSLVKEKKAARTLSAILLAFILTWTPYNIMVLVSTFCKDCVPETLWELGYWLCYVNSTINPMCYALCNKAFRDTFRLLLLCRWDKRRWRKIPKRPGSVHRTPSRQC
Experimental: as §1, §2, §3, §4, §5

Row | Compound | Emax (M4 muscarinic receptor) [%] | M4 Activity (M4 muscarinic receptor) | Emax (M1 muscarinic receptor) [%] | M1 Activity (M1 muscarinic receptor)
1 | CCOC(=O)N1CCC(N2CCC3(CC2)CN(C(=O)c2ccno2)Cc2ccccc23)CC1 [compound 46] | 25 to 100 | +++ (activity was measured to be less than 1.0 μM) | 25 to 100 | +++ (activity was measured to be less than 1.0 μM)
2 | CN(C)C(=O)N1Cc2ccccc2C2(CCN(C3CC4CCC(C3)N4C(=O)O[C@@H]3CCOC3)CC2)C1 (stereo partly drawn) [compound 48, (R)-tetrahydrofuran-3-yl 3-(2-(dimethylcarbamoyl)-2,3-dihydro-1H -spiro[isoquinoline-4,4′-piperidine]-1′-yl)-8-azabicyclo[3.2.1]octane-8-carboxylate] | 25 to 100 | +++ (activity was measured to be less than 1.0 μM) | 25 to 100 | +++ (activity was measured to be less than 1.0 μM)
3 | COC(=O)N1CC(CN2CCC3(CC2)CN(C(C)=O)Cc2ccccc23)C1 [compound 50] | < 25 | + (activity was measured to be greater than 5.0 μM) | < 25 | + (activity was measured to be greater than 5.0 μM)
4 | CCOC(=O)N1CCC(CN2CCC3(CC2)CN(C(=O)Nc2ccccc2)Cc2ccccc23)CC1 [compound 51] | 25 to 100 | +++ (activity was measured to be less than 1.0 μM) | 25 to 100 | +++ (activity was measured to be less than 1.0 μM)
5 | O=C1c2ccccc2C2(CCN(CC3CCCCC3)CC2)N1Cc1ccccc1 [compound 52] | < 25 | + (activity was measured to be greater than 5.0 μM) | 25 to 100 | + (activity was measured to be greater than 5.0 μM)
6 | CCOC(=O)N1CCC(N2CCC3(CC2)CN(C(=O)NC(C)(C)C)Cc2ccccc23)CC1 [compound 53] | 25 to 100 | +++ (activity was measured to be less than 1.0 μM) | 25 to 100 | +++ (activity was measured to be less than 1.0 μM)
7 | O=C1NC2(CCN(CC3CCCCC3)CC2)c2ccccc21 [compound 54] | 25 to 100 | + (activity was measured to be greater than 5.0 μM) | < 25 | + (activity was measured to be greater than 5.0 μM)
8 | CCCCOC(=O)N1Cc2ccccc2C2(CCN(C3CCN(C(=O)OCC)CC3)CC2)C1 [compound 56] | 25 to 100 | +++ (activity was measured to be less than 1.0 μM) | 25 to 100 | +++ (activity was measured to be less than 1.0 μM)
9 | CC(=O)N1Cc2ccccc2C2(CCN(CC3CCCCO3)CC2)C1 (stereo not shown) [compound 58] | < 25 | + (activity was measured to be greater than 5.0 μM) | < 25 | + (activity was measured to be greater than 5.0 μM)
10 | CCC(=O)Oc1ccc(CN2CCC3(CC2)CN(C(C)=O)Cc2ccccc23)cc1 [compound 59] | < 25 | + (activity was measured to be greater than 5.0 μM) | < 25 | + (activity was measured to be greater than 5.0 μM)
11 | CCCCNC(=O)N1Cc2ccccc2C2(CCN(C3CC4CCC(C3)N4C(=O)OCC)CC2)C1 (stereo not shown) [compound 61] | 25 to 100 | +++ (activity was measured to be less than 1.0 μM) | 25 to 100 | +++ (activity was measured to be less than 1.0 μM)
12 | CCOC(=O)N1CCC(CN2CCC3(CC2)CN(C(=O)CC)Cc2ccccc23)CC1 [compound 63] | 25 to 100 | +++ (activity was measured to be less than 1.0 μM) | 25 to 100 | +++ (activity was measured to be less than 1.0 μM)
13 | CCOC(=O)N1C2CCC1CC(N1CCC3(CC1)CN(C(=O)C1(C(F)(F)F)CC1)Cc1ccccc13)C2 (stereo not shown) [compound 64] | 25 to 100 | +++ (activity was measured to be less than 1.0 μM) | 25 to 100 | +++ (activity was measured to be less than 1.0 μM)
14 | CC(=O)N1Cc2ccccc2C2(CCN(CC3=C(C)C=CCC3(C)C)CC2)C1 [compound 65] | 25 to 100 | + (activity was measured to be greater than 5.0 μM) | 25 to 100 | + (activity was measured to be greater than 5.0 μM)
15 | COc1ccc(CN2CCC3(CC2)CN(C(C)=O)Cc2ccccc23)cc1 [compound 66] | < 25 | + (activity was measured to be greater than 5.0 μM) | < 25 | + (activity was measured to be greater than 5.0 μM)
16 | CCOC(=O)N1C2CCC1CC(N1CCC3(CC1)CN(S(=O)(=O)c1ccc(OC(F)(F)F)cc1)Cc1ccccc13)C2 (stereo not shown) [compound 67] | 25 to 100 | +++ (activity was measured to be less than 1.0 μM) | 25 to 100 | ++ (activity was measured to be from 1.0 μM to 5.0 μM)
17 | CCOC(=O)C1CCC(N2CCC3(CC2)CN(C(C)=O)Cc2ccccc23)CC1 (stereo not shown) [compound 68] | 25 to 100 | +++ (activity was measured to be less than 1.0 μM) | 25 to 100 | +++ (activity was measured to be less than 1.0 μM)
18 | CCOC(=O)N1C2CCC1CC(N1CCC3(CC1)CN(S(=O)(=O)c1ccccc1Cl)Cc1ccccc13)C2 (stereo not shown) [compound 69] | 25 to 100 | +++ (activity was measured to be less than 1.0 μM) | 25 to 100 | +++ (activity was measured to be less than 1.0 μM)
19 | CCOC(=O)N1CCC(CN2CCC3(CC2)CN(S(C)(=O)=O)Cc2ccccc23)CC1 [compound 70] | 25 to 100 | +++ (activity was measured to be less than 1.0 μM) | 25 to 100 | +++ (activity was measured to be less than 1.0 μM)
